Experimental data reported in patent US10150737B2, “Compounds for controlling arthropods” (priority 2013, dated 2018).

What was measured:
[1] = logP determination by HPLC on a reversed-phase column (C18); assay type: physicochemical; conditions: for logP^a): HPLC-MS method a); for log P: HPLC-MS; for logP: HPLC, C18 reversed phase, acetonitrile/water with formic acid, EEC Directive 79/831 Annex V.A8
Ctenocephalides felis [2] = test: Ctenocephalides felis - oral test; assay type: in vivo; conditions: application rate 100 ppm in citrated cattle blood; after 2 days
Procedure, shortened: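 Roughly 20 unfed adult C. felis imbibe compound-dosed citrated cattle blood (DMSO formulation) across parafilm from a cylinder above their gauze chamber; percentage mortality recorded at day 2.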

Ctenocephalides felis [3] = test: Ctenocephalides felis - in vitro contact tests with adult cat fleas; assay type: in vivo; conditions: application rate 5 μg/cm2 (=500 g/ha); after 48 h; fleas dead or moribund
Procedure, shortened: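 Efficacy, as percentage of fleas dead or moribund, was scored at 48 h by knocking fleas to the tube base. Exposure was by contact with a dried acetone film of compound at 5 μg/cm^2 area dose; 5–10 adults per tube, room temperature, ambient humidity.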

Spodoptera frugiperda = Spodoptera frugiperda - spray test; assay type: in vivo; conditions: caterpillars on maize leaf discs, after 7 days
Procedure, shortened: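 Percent mortality of Spodoptera frugiperda caterpillars scored 7 days after placing them on dried maize leaf discs sprayed at the desired concentration. Spray formulation: compound dissolved in acetone/dimethylformamide, made up with water containing 1000 ppm emulsifier.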

Phaedon cochleariae = Phaedon cochleariae - spray test; assay type: in vivo; conditions: larvae on Chinese cabbage leaf discs, after 7 days
Procedure, shortened: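 Mortality of mustard beetle larvae was scored as % at day 7 on Brassica pekinensis leaf discs. Discs had been treated by spraying at the desired concentration, using an acetone/dimethylformamide solution diluted in water with 1000 ppm alkylaryl polyglycol ether, and dried before larvae were added.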

Boophilus microplus = Boophilus microplus - injection test; assay type: in vivo; conditions: application rate 20 μg/animal, injection into engorged adult female ticks, after 7 days
Procedure, shortened: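 Five engorged adult female cattle ticks each received a 1 μl abdominal injection of compound solution in dimethyl sulphoxide. Fertile egg laying was assessed at 7 days, with doubtful eggs incubated about 42 days until hatch. 0% efficacy means all eggs fertile.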

Lucilia cuprina = Lucilia cuprina test; assay type: in vivo; conditions: application rate 100 ppm; L1 larvae; after 2 days
Procedure, shortened: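 Mortality (%) of first-instar blowfly larvae, about 20 per vessel, recorded 2 days after exposure to compound-treated minced horsemeat. Compound dissolved in dimethyl sulphoxide, then water-diluted to the desired concentration.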

Musca domestica = Musca domestica test; assay type: in vivo; conditions: application rate 100 ppm; adult houseflies; after 2 days
Procedure, shortened: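 10 adult flies per vessel; sugar-solution sponge dosed with active ingredient formulation (DMSO concentrate diluted in water to desired concentration). Read-out: % kill at 2 days.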

Rhipicephalus sanguineus = Rhipicephalus sanguineus - in vitro contact tests with adult brown dog ticks; assay type: in vivo; conditions: after 48 h, ticks dead or moribund
Description: For the coating of the test tubes, 9 mg of active ingredient are first dissolved in 1 ml of acetone p.a. and then diluted to the desired concentration with acetone p.a. 250 μl of the solution are distributed homogeneously on the inner walls and base of a 25 ml test tube by turning and rocking on an orbital shaker (rocking rotation at 30 rpm for 2 h). With 900 ppm active ingredient solution and internal surface 44.7 cm^2, given homogeneous distribution, an area-based dose of 5 μg/cm^2 is achieved.
After the solvent has evaporated off, the tubes are populated with 5-10 adult dog ticks (Rhipicephalus sanguineus), sealed with a perforated plastic lid and incubated in a horizontal position in the dark at room temperature and ambient humidity. After 48 h, efficacy is determined. To this end, the ticks are knocked to the floor of the tube and incubated on a hotplate at 45-50° C. for not more than 5 min. Ticks which remain motionless on the floor or move in such an uncoordinated manner that they are unable to deliberately avoid the heat by climbing upwards are considered to be dead or moribund.
An efficacy of 100% means that all the ticks were dead or moribund. 0% efficacy means that none of the ticks had been harmed.

Tetranychus urticae = Tetranychus urticae - spray test, OP-resistant; assay type: in vivo; conditions: bean leaf discs, after 6 days
Procedure, shortened: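 Mortality (%) read on day 6 after spraying Phaseolus vulgaris leaf discs carrying all mite stages with formulations at the desired concentration. Formulation: active ingredient in acetone plus dimethylformamide, made up with emulsifier-containing water (1000 ppm alkylaryl polyglycol ether).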

Myzus persicae = Myzus persicae - spray test; assay type: in vivo; conditions: Chinese cabbage leaf discs, after 6 days
Description: Solvent: 78 parts by weight of acetone and 1.5 parts by weight of dimethylformamide
Emulsifier: alkylaryl polyglycol ether
To produce an appropriate active ingredient formulation, 1 part by weight of active ingredient is dissolved using the specified parts by weight of solvent and made up with water containing an emulsifier concentration of 1000 ppm until the desired concentration is attained. To produce further test concentrations, the preparation is diluted with emulsifier-containing water.
Discs of Chinese cabbage leaves (Brassica pekinensis) infested by all stages of the green peach aphid (Myzus persicae) are sprayed with an active ingredient formulation of the desired concentration.
After 6 days, efficacy in % is determined. 100% means that all the aphids have been killed; 0% means that none of the aphids have been killed.

[4] = reversed-phase column (C18), Table I-T3

Row | SMILES | log P [1, 4] | efficacy (kill) (Ctenocephalides felis [2]) | efficacy (Ctenocephalides felis [3]) | efficacy (Spodoptera frugiperda; application rate 100 g/ha) | efficacy (Phaedon cochleariae; application rate 100 g/ha) | efficacy (laying of fertile eggs) (Boophilus microplus) | efficacy (kill) (Lucilia cuprina) | efficacy (kill) (Musca domestica) | efficacy (Rhipicephalus sanguineus; application rate 5 μg/cm2) | logP^a) [1] | logP^a) [1, 4] | efficacy (Tetranychus urticae; application rate 100 g/ha) | further results
1 | COc1ncc(-c2cnn(-c3c(C)cc(C(F)(C(F)(F)F)C(F)(F)F)cc3C)c2)cc1C(=O)NC1CC1 [I-T3-143] | 4.6 | 100% | 100% | 100% | 100% | 100% | 100% | 100% | 80% |  |  |  | logP^a) ([1]; reversed-phase column (C18)): 4.6
2 | CCc1cc(C(F)(C(F)(F)F)C(F)(F)F)cc(C)c1-n1cc(-c2ccc(Cl)c(C(=O)NC3CSC3)c2)cn1 [I-T3-47] |  | 100% |  |  |  | 100% | 100% |  | 100% | 5.0 | 5.0 |  | efficacy (Spodoptera frugiperda; application rate 500 g/ha): 100%; efficacy (Phaedon cochleariae; application rate 500 g/ha): 100%; efficacy (Tetranychus urticae; application rate 500 g/ha): 100%
3 | CCc1cc(C(F)(C(F)(F)F)C(F)(F)F)cc(C)c1-n1cc(-c2ccc(Cl)c(C(=O)NC3(C#N)CC3)c2)cn1 [I-T3-46] |  | 100% | 100% |  |  | 100% | 100% | 100% | 100% | 4.6 | 4.6 |  | efficacy (Spodoptera frugiperda; application rate 500 g/ha): 100%; efficacy (Phaedon cochleariae; application rate 500 g/ha): 100%; efficacy (Tetranychus urticae; application rate 500 g/ha): 100%; efficacy (Myzus persicae; application rate 500 g/ha): 100%
4 | COc1ncc(-c2cnn(-c3c(C)cc(C(F)(C(F)(F)F)C(F)(F)F)cc3C)c2)cc1C(=O)NC1(C#N)CC1 [I-T3-141] | 4.4 | 100% |  | 100% | 100% | 100% | 100% | 100% |  |  |  |  | logP^a) ([1]; reversed-phase column (C18)): 4.4; efficacy (Rhipicephalus sanguineus; application rate 1 μg/cm2): 100%
5 | O=C(NC1CC1)c1cc(-c2cnn(-c3c(Cl)cc(OC(F)(F)F)cc3Cl)c2)ccc1Cl [I-T3-88] |  | 100% | 100% | 100% | 100% | 100% | 100% | 80% | 80% | 3.6 | 3.6 | 100% | efficacy (Myzus persicae; application rate 100 g/ha): 100%
6 | O=C(NC1CC1)c1cc(-c2cnn(-c3c(Cl)cc(C(F)(C(F)(F)F)C(F)(F)F)cc3OC(F)(F)F)c2)cnc1Cl [I-T3-189] | 4.3 | 100% | 100% | 100% | 100% |  | 100% | 100% | 100% |  |  | 100% | efficacy (Myzus persicae; application rate 100 g/ha): 100%
7 | O=C(NC1CC1)c1cc(-c2cnn(-c3c(Cl)cc(C(F)(C(F)(F)F)C(F)(F)F)cc3OC(F)F)c2)cnc1Cl [I-T3-196] | 3.9 |  | 100% |  |  |  |  |  | 100% |  |  |  | 
8 | O=C(NC1CC1)c1cc(-c2cnn(-c3ccc(C(F)(C(F)(F)F)C(F)(F)F)cc3C(F)(F)F)c2)ccc1Cl [I-T3-52] |  | 100% |  | 100% | 100% | 100% | 100% | 100% | 100% | 4.3 | 4.3 | 90% | 
9 | CCc1cc(C(F)(C(F)(F)F)C(F)(F)F)ccc1-n1cc(-c2ccc(Cl)c(C(=O)NC3(C#N)CC3)c2)cn1 [I-T3-38] |  | 100% |  | 100% | 100% | 100% | 100% | 100% | 80% | 4.5 | 4.5 | 100% | efficacy (Myzus persicae; application rate 100 g/ha): 90%
10 | Cc1cc(C(F)(C(F)(F)F)C(F)(F)F)cc(C)c1-c1cnn(-c2ccc(Cl)c(C(=O)NC3CC3)c2)c1 [I-T4-1, N-cyclopropyl-2-chloro-5-[4-[2,6-dimethyl-4-[1,2,2,2-tetrafluoro-1-(trifluoromethyl)ethyl]phenyl]pyrazol-1-yl]benzamide] |  |  |  |  |  |  |  |  | 100% |  |  |  | logP [1]: 4.7; pest or weed control at 0.02 mg (Boophilus microplus; Rhipicephalus microplus, 168 h, read-out: efficacy (laying of fertile eggs)): 100%
11 | Cc1cc(C(F)(C(F)(F)F)C(F)(F)F)cc(C)c1-c1cnn(-c2ccc(Cl)c(C(=O)NC3(C#N)CC3)c2)c1 [I-T4-2] |  | 100% | 100% | 100% | 100% | 100% | 100% | 100% | 100% |  |  | 100% | logP [1]: 4.6; efficacy (Myzus persicae; application rate 20 g/ha): 90%
12 | Cc1cc(C(F)(C(F)(F)F)C(F)(F)F)cc(C(F)(F)F)c1-n1cc(-c2ccc(Cl)c(C(=S)NC3CC3)c2)cn1 [I-T3-161, 2-chloro-N-cyclopropyl-5-[1-[2-methyl-4-[1,2,2,2-tetrafluoro-1-(trifluoromethyl)ethyl]-6-(trifluoromethyl)phenyl]pyrazo-4-yl]benzenecarbothioamide] | 5.0 | 100% |  | 100% | 100% | 100% | 100% | 100% | 100% |  |  | 100% | logP [1]: 5.0; logP^a) ([1]; reversed-phase column (C18)): 5.0
13 | O=C(NC1CC1)c1cc(-c2cnn(-c3ccc(OC(F)(F)F)cc3Cl)c2)ccc1Cl [I-T3-90] | 3.6 | 100% |  |  |  | 100% | 100% | 90% | 100% | 3.6 |  |  | efficacy (Spodoptera frugiperda; application rate 500 g/ha): 100%; efficacy (Phaedon cochleariae; application rate 500 g/ha): 100%; efficacy (Tetranychus urticae; application rate 500 g/ha): 90%
